Test results from patent publication US20260355196A1, “INHIBITORS AND DEGRADERS OF PIP4K PROTEIN” (Larkspur Biosciences, Inc., priority 2023, published 2026).

Target: T1, PIP4K2C (Homo sapiens, UniProt Q8TBX8)
T1 sequence (Q8TBX8 1-421): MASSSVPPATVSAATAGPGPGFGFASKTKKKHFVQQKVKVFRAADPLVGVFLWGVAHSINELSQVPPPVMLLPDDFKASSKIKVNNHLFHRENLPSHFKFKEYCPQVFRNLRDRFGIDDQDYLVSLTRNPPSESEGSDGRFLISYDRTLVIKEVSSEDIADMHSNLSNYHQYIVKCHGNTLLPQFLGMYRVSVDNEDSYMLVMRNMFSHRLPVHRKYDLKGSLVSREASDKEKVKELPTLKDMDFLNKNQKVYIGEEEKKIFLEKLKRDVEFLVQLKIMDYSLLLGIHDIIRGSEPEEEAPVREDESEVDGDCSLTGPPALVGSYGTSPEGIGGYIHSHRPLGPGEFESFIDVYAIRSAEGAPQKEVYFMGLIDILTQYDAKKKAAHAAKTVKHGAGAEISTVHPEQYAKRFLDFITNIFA
Test: HiBiT PIP4K2C degradation assay in MOLT-4 cells (endogenous PIP4K2C C-terminally tagged with HiBiT)
Format: cell-based
Set-up: untagged in primary human PBMCs and monocyte-derived dendritic cells
Details: 6 hours of incubation time, rather than 24 hours; MOLT-4, top concentration 10 micromolar; read-out: HiBIT-degradation MOLT4 PIP4k2C DC50 (6 hours, marked *)
Description: Example B-2: HiBiT PIP4K2C degradation assay
Materials: MOLT-4, a human T lymphoblast cell line (see https://www.atcc.org/products/crl-1582, herein incorporated by reference in its entirety), was genetically engineered using CRISPR-Cas9 by Synthego Corporation (Redwood City, CA) to C-terminally tag endogenous PIP4K2C with HiBiT peptide. Following clonal selection, genotype was confirmed by Sanger sequencing. MO LT-4 were maintained using RPMI-1640 medium from Gibco (Grand Island, NY, catalog number 11875-085) supplemented with 10% fetal bovine serum (FBS) from VWR (Philadelphia, PA, catalog number 97068-085). For HiBiT assays the cells were resuspended in RPMI-1640 medium without phenol read from Gibco (Grand Island, NY, catalog number 11835-030) supplemented with 10% FBS. Nano-Glo® HiBiT Lytic Assay System was purchased from Promega (Madison, WI, Catalog number N3030). Cell culture flasks and 384-well microplates were purchased from Corning (Glendale, AZ).
To study PIP4K2C degradation, 384-well plates were plated with a 10-point dose response curve, 3-fold dilution, in duplicate with a top starting concentration of 10 micromolar. Subsequently 22,500 cells were added to each well and incubated at 37 C in 5% C02 for 24 hours or 6 hours. At the end of the incubation time, cells were treated with the Nano-Glo® HiBiT Lytic Detection System following the manufacturer's instructions. Luminescence was measured with a PHERAstar FSX plate reader (BMG Labtech, Cary, NC). The Levenberg-Marquardt algorithm was used to fit a Hill equation to dose-response data to calculate DC50 values (see Table 6).

`O=C1CCC(Nc2ccc(N3CCC(CN4CCC(C(=O)N[C@H]5CC[C@H](Nc6ncc(F)c(-c7cccc(-n8ccccc8=O)c7)n6)CC5)CC4)CC3)c(F)c2)C(=O)N1` (mixture of isomers) [Compound 433, 1-((1-(4-((2,6-dioxopiperidin-3-yl)amino)-2-fluorophenyl)piperidin-4-yl)methyl)-N-((1r,4r)-4-((5-fluoro-4-(3-(2-oxopyridin-1(2H)-yl)phenyl)pyrimidin-2-yl)amino)cyclohexyl)piperidine-4-carboxamide] and `Cn1nc(C2CCC(=O)NC2=O)c2ccc(C3CCN(CCN4CCC(C(=O)N[C@H]5CC[C@H](Nc6ncc(F)c(-c7cccc(-n8ccccc8=O)c7)n6)CC5)CC4)CC3)cc21` (mixture of isomers) [Compound 534, 1-(2-(4-(3-(2,6-dioxopiperidin-3-yl)-1-methyl-1H-indazol-6-yl)piperidin-1-yl)ethyl)-N-((1r,4r)-4-((5-fluoro-4-(3-(2-oxopyridin-1(2H)-yl)phenyl)pyrimidin-2-yl)amino)cyclohexyl)piperidine-4-carboxamide] cannot be ordered by DC50: less than 0.5 µM for the first, less than 0.5 µM for the second.

Same assay, conditions: 24 hours incubation, MOLT-4, top concentration 10 micromolar; read-out: HiBIT-degradation MOLT4 PIP4k2C 24 hours DC50

`Cn1c(=O)n(C2CCC(=O)NC2=O)c2ccc(C3CCN(CCN4CCN(C(=O)[C@H]5CCC[C@@H](Nc6ncc(Cl)c(-c7cccc(-c8ccccc8)c7)n6)C5)CC4)CC3)cc21` (relative stereo) [Compound 49, cis-3-(5-(1-(2-(4-(3-((4-([1,1′-biphenyl]-3-yl)-5-chloropyrimidin-2-yl)amino)cyclohexane-1-carbonyl)piperazin-1-yl)ethyl)piperidin-4-yl)-3-methyl-2-oxo-2,3-dihydro-1H-benzo[d]imidazol-1-yl)piperidine-2,6-dione] and `Cn1c(=O)n(C2CCC(=O)NC2=O)c2ccc(C3CCN(CC(=O)N4CCN(C(=O)[C@H]5CCC[C@@H](Nc6ncc(Cl)c(-c7cccc(-c8ccccc8)c7)n6)C5)CC4)CC3)cc21` (relative stereo) [Compound 51, cis-3-(5-(1-(2-(4-(3-((4-([1,1′-biphenyl]-3-yl)-5-chloropyrimidin-2-yl)amino)cyclohexane-1-carbonyl)piperazin-1-yl)-2-oxoethyl)piperidin-4-yl)-3-methyl-2-oxo-2,3-dihydro-1H-benzo[d]imidazol-1-yl)piperidine-2,6-dione] cannot be ordered by DC50: less than 0.5 µM for the first, less than 0.5 µM for the second.

`Cn1c(=O)n(C2CCC(=O)NC2=O)c2ccc(C3CCN(CCC4CCN(C(=O)[C@H]5CCC[C@@H](Nc6ncc(Cl)c(-c7cccc(-c8ccccc8)c7)n6)C5)CC4)CC3)cc21` (relative stereo) [Compound 52, cis-3-(5-(1-(2-(1-(3-((4-([1,1′-biphenyl]-3-yl)-5-chloropyrimidin-2-yl)amino)cyclohexane-1-carbonyl)piperidin-4-yl)ethyl)piperidin-4-yl)-3-methyl-2-oxo-2,3-dihydro-1H-benzo[d]imidazol-1-yl)piperidine-2,6-dione] and `Cn1c(=O)n(C2CCC(=O)NC2=O)c2ccc(C3CCN(C(=O)CC4CCN(C(=O)[C@H]5CCC[C@@H](Nc6ncc(Cl)c(-c7cccc(-c8ccccc8)c7)n6)C5)CC4)CC3)cc21` (relative stereo) [Compound 59, cis-3-(5-(1-(2-(1-(3-((4-([1,1′-biphenyl]-3-yl)-5-chloropyrimidin-2-yl)amino)cyclohexane-1-carbonyl)piperidin-4-yl)acetyl)piperidin-4-yl)-3-methyl-2-oxo-2,3-dihydro-1H-benzo[d]imidazol-1-yl)piperidine-2,6-dione] cannot be ordered by DC50: less than 0.5 µM for the first, less than 0.5 µM for the second.

`O=C1CCC(N2Cc3cc(C4CCN(CC(=O)N5CCN(C(=O)[C@H]6CCC[C@@H](Nc7ncc(Cl)c(-c8cccc(-c9ccccc9)c8)n7)C6)CC5)CC4)ccc3C2=O)C(=O)N1` (relative stereo) [Compound 54, cis-3-(5-(1-(2-(4-(3-((4-([1,1′-biphenyl]-3-yl)-5-chloropyrimidin-2-yl)amino)cyclohexane-1-carbonyl)piperazin-1-yl)-2-oxoethyl)piperidin-4-yl)-1-oxoisoindolin-2-yl)piperidine-2,6-dione] and `O=C1CCC(N2Cc3cc(C4CCN(CCN5CCN(C(=O)[C@H]6CCC[C@@H](Nc7ncc(Cl)c(-c8cccc(-c9ccccc9)c8)n7)C6)CC5)CC4)ccc3C2=O)C(=O)N1` (relative stereo) [Compound 61, cis-3-(5-(1-(2-(4-(3-((4-([1,1′-biphenyl]-3-yl)-5-chloropyrimidin-2-yl)amino)cyclohexane-1-carbonyl)piperazin-1-yl)ethyl)piperidin-4-yl)-1-oxoisoindolin-2-yl)piperidine-2,6-dione] cannot be ordered by DC50: less than 0.5 µM for the first, less than 0.5 µM for the second.

First: O=C1CCC(Nc2ccc(C3CCN(CCN4CCN(C(=O)[C@H]5CCC[C@@H](Nc6ncc(Cl)c(-c7cccc(-c8ccccc8)c7)n6)C5)CC4)CC3)cc2)C(=O)N1 (relative stereo) [Compound 55, cis-3-((4-(1-(2-(4-(3-((4-([1,1′-biphenyl]-3-yl)-5-chloropyrimidin-2-yl)amino)cyclohexane-1-carbonyl)piperazin-1-yl)ethyl)piperidin-4-yl)phenyl)amino)piperidine-2,6-dione]
Second: O=C1CCC(Nc2ccc(C3CCN(CC(=O)N4CCN(C(=O)[C@H]5CCC[C@@H](Nc6ncc(Cl)c(-c7cccc(-c8ccccc8)c7)n6)C5)CC4)CC3)cc2)C(=O)N1 (relative stereo) [Compound 57, cis-3-((4-(1-(2-(4-(3-((4-([1,1′-biphenyl]-3-yl)-5-chloropyrimidin-2-yl)amino)cyclohexane-1-carbonyl)piperazin-1-yl)-2-oxoethyl)piperidin-4-yl)phenyl)amino)piperidine-2,6-dione]
The DC50 of the first is higher: 0.5 to 1 µM for the first, less than 0.5 µM for the second.

`Cn1c(=O)n(C2CCC(=O)NC2=O)c2ccc(C3CCN(C(=O)CN4CCN(C(=O)[C@H]5CCC[C@@H](Nc6ncc(Cl)c(-c7cccc(-c8ccccc8)c7)n6)C5)CC4)CC3)cc21` (relative stereo) [Compound 58, cis-3-(5-(1-(2-(4-(3-((4-([1,1′-biphenyl]-3-yl)-5-chloropyrimidin-2-yl)amino)cyclohexane-1-carbonyl)piperazin-1-yl)acetyl)piperidin-4-yl)-3-methyl-2-oxo-2,3-dihydro-1H-benzo[d]imidazol-1-yl)piperidine-2,6-dione] and `O=C1CCC(N2Cc3cc(C4CCN(C(=O)C5CCN(C(=O)[C@H]6CCC[C@@H](Nc7ncc(Cl)c(-c8cccc(-c9ccccc9)c8)n7)C6)CC5)CC4)ccc3C2=O)C(=O)N1` (relative stereo) [Compound 60, cis-3-(5-(1-(1-(3-((4-([1,1′-biphenyl]-3-yl)-5-chloropyrimidin-2-yl)amino)cyclohexane-1-carbonyl)piperidine-4-carbonyl)piperidin-4-yl)-1-oxoisoindolin-2-yl)piperidine-2,6-dione] cannot be ordered by DC50: less than 0.5 µM for the first, less than 0.5 µM for the second.

`O=C1CCC(N2Cc3cc(C4CCN(CCC5CCN(C(=O)[C@H]6CCC[C@@H](Nc7ncc(Cl)c(-c8cccc(-c9ccccc9)c8)n7)C6)CC5)CC4)ccc3C2=O)C(=O)N1` (relative stereo) [Compound 62, cis-3-(5-(1-(2-(1-(3-((4-([1,1′-biphenyl]-3-yl)-5-chloropyrimidin-2-yl)amino)cyclohexane-1-carbonyl)piperidin-4-yl)ethyl)piperidin-4-yl)-1-oxoisoindolin-2-yl)piperidine-2,6-dione] and `O=C1CCC(N2Cc3cc(C4CCN(CC5CCN(C(=O)[C@H]6CCC[C@@H](Nc7ncc(Cl)c(-c8cccc(-c9ccccc9)c8)n7)C6)CC5)CC4)ccc3C2=O)C(=O)N1` (relative stereo) [Compound 63, cis-3-(5-(1-((1-(3-((4-([1,1′-biphenyl]-3-yl)-5-chloropyrimidin-2-yl)amino)cyclohexane-1-carbonyl)piperidin-4-yl)methyl)piperidin-4-yl)-1-oxoisoindolin-2-yl)piperidine-2,6-dione] cannot be ordered by DC50: less than 0.5 µM for the first, less than 0.5 µM for the second.

`O=C1CCC(Nc2ccc(C3CCN(CCC4CCN(C(=O)[C@H]5CCC[C@@H](Nc6ncc(Cl)c(-c7cccc(-c8ccccc8)c7)n6)C5)CC4)CC3)cc2)C(=O)N1` (relative stereo) [Compound 64, cis-3-((4-(1-(2-(1-(3-((4-([1,1′-biphenyl]-3-yl)-5-chloropyrimidin-2-yl)amino)cyclohexane-1-carbonyl)piperidin-4-yl)ethyl)piperidin-4-yl)phenyl)amino)piperidine-2,6-dione] showed a DC50 of less than 0.5 µM.
